In this test the test system is CX3CR1/GFP^intLy6C^hi effector monocytes. Nature of the test: IL-6 ELISA of sorted colonic cells cultured with TLR/NOD2 ligands. The note with it: cells sorted at DSS day 7, cultured 16 hr; Pam3CSK4 10 µg/ml, LPS 100 ng/ml. The test is classed as cell-based, mice. The text has this:
To probe whether the pro-inflammatory signature of the effector monocytes could have been a result of TLR and NOD-2 engagement, the cells were isolated from colitic mice and exposed to the respective ligands.

For the substance Pam3CSK4, the IL-6 secretion entry was “substantial IL-6 secretion”.
